Experiments:
[1] = test system: SARS-CoV-2; experiment: Ivermectin effect on preventing SARS-CoV-2 infection of pretreated Vero-E6 cells (qRT-PCR); type: cell-based
Procedure: Assessment of Ivermectin effect on preventing SARS-CoV-2 infection Vero-E6 cells were incubated with 0.01, 0.025, 0.05, 0.1, 0.5, 1 or 5 μM concentrations of ivermectin during 2, 6, 16 or 24 hours. Then, cells were infected with SARS-CoV-2 at a multiplicity of infection (MOI) of 0.001, 0.01 or 0.1. After 2 hours of incubation in the presence of the virus, medium with the same concentration of ivermectin was added again. After 24, 48 or 72 hours, viral charge is quantified by qRT-PCR.

[2] = test system: Vero-E6 cells; experiment: Cytotoxicity in non-infected Vero-E6 cells (cell viability); type: cell-based; settings: 0.01-5 μM ivermectin
Procedure: For avoiding false positives, cytotoxicity was evaluated by culturing non-infected cells in the same conditions and with the same concentrations of ivermectin. Cell viability was then determined.

[3] = test system: SARS-CoV-2 clinical isolate; settings: Vero/hSLAM cells, cited from earlier work
[4] = test system: Zika virus (ZIKV); settings: mice; cited from earlier work
[5] = test system: DENV; settings: single daily oral dose; cited from earlier work

ivermectin
preincubation-time dependency of inhibition of viral replication ([1]; 72 hours post-infection, preincubation 2, 6, 16 or 24 hours): the longer the preincubation time with ivermectin, the higher the inhibition of viral replication | viral replication (RT-qPCR) ([1]; cells pretreated with ivermectin at 5 μM): highly inhibited | cell toxicity [2]: No cell toxicity | antiviral action in vitro [3]: has antiviral action | time within which a single dose controls viral replication ([3]; single dose): 24 to 48 h | effectiveness against Zika virus [4]: not effective | safety [5]: safe | serum levels of viral NS1 protein [5]: significant reduction | viremia or clinical benefit [5]: no change

From patent publication US20240099964A1, “Methods and Compositions for the Prophylactic Treatment of SARS-CoV-2 virus (COVID-19)” (MedinCell S.A., priority 2020, published 2024)
